As usually defined, the Ki is the dissociation constant of the complex between target and ligand, obtained from inhibition or displacement.

The target in assay [1] is T1, σ1R (Cavia porcellus, UniProt Q60492).
T1 construct: The thawed membrane preparation of guinea pig brain cortex (250 μg/sample) was incubated; from tissue; host or cells: brain cortex membranes of male Dunkin-Hartley guinea pigs
In words: σ1R radioligand competition binding assay ([3H]-(+)-pentazocine, guinea pig brain cortex membranes). As to conditions: for Ki σ2R/σ1R selectivity ratio: ratio of Ki σ2R to Ki σ1R. (In general: Displacement assays read how much labelled ligand stays bound in the presence of the test substance.)

The target of assay [2] is T2, σ2R (Rattus norvegicus, UniProt Q5U3Y7).
T2 construct: The thawed membrane preparation of rat liver (250 μg/sample) was incubated; from tissue; host or cells: liver membranes of male Sprague-Dawley rats
T2 sequence (Q5U3Y7 1-176): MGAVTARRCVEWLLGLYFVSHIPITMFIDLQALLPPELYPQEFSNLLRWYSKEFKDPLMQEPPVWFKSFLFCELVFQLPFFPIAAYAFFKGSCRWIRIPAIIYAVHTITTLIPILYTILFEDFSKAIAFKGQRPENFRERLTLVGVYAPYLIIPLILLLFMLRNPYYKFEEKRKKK
In words: σ2R radioligand competition binding assay ([3H]DTG, rat liver membranes).

Assay [3] deals with T3, MOR (Rattus norvegicus, UniProt P33535).
T3 construct: from tissue; host or cells: brain membranes of male Sprague-Dawley rats
The experiment in a line: MOR radioligand binding assay ([3H]-DAMGO, rat brain membranes).

Assay [4] addresses T4, DOR (Rattus norvegicus, UniProt P33533).
T4 construct: from tissue; host or cells: brain membranes of male Sprague-Dawley rats
In words: DOR radioligand binding assay ([3H]-Deltorphin II, rat brain membranes).

The target of assay [5] is T5, KOR (Cavia porcellus, UniProt P41144).
T5 construct: from tissue; host or cells: brain membranes of male Dunkin-Hartley guinea pigs
In words: biochemical. The class given is binding, guinea pig.

In assay [6] the test system is formalin-induced pain behaviour. In words: Mouse formalin test. It is filed as in vivo. The method, then:
Mice injected with 5% formalin into the mid-plantar surface of the right hind paw developed the characteristic formalin-induced pain behaviour, evidenced by a biphasic flinching and lifting/licking response. The time course of formalin-induced behaviours evidenced an immediate and acute nociceptive activity (0–5 min, phase I) that, after a short quiescent period (5–10 min, interphase), was followed by a more prolonged response (10–60 min, phase II).
To evaluate the systemic antinociceptive effect in both phases of the formalin test, vehicle, (−)-2R-LP2 (2) (2mg/kg), (−)-2S-LP2 (3) (0.7 mg/kg), (+)-2R/S-LP2 (7) (5 mg/kg), and (+)-2R-LP2 (8) (5 mg/kg) were administrated intraperitoneally (i.p.) 20 min before formalin injection, at doses chosen in accordance to previous studies.
Experiments were performed on male CD1 mice (Envigo Laboratories, Indianapolis, IN, USA) aged between 8 and 12 weeks. Mice were housed in 5 animals per cage under a 12/12 h light/dark cycle at a constant temperature (23–25 °C) with free access to food and water, and were allowed to acclimate for at least one week upon arrival before starting all experiments, which were conducted between 9:00 a.m. and 3:00 p.m. This study was executed according to the European Communities Council directive and Italian regulation (EEC Council 2010/63/EU and Italian D.Lgs. no. 26/2014) to replace, reduce, and refine the use of laboratory animals. All procedures were approved by the ethical committee of the University of Catania (OPBA) and by the Italian Ministry of Health (authorization n° 385/2021-PR).
Formalin and naloxone hydrochloride were purchased from Merck. PRE-84 synthesis was reported in the supporting information (Figure S7). All compounds were dissolved in pyrogen-free isotonic saline and dimethyl sulfoxide, (DMSO 0.5% v/v). All LP compounds were administrated i.p. 20 min before formalin injection. Naloxone hydrochloride s.c. and PRE-084 hydrochloride s.c. were administered 20 min before the injection of the LP compounds.
Formalin solution (5%, 10 μL) was administered subcutaneously into the plantar surface of the right hind paw (i.pl.), monitoring the nociceptive behavior, such as licking and flicking or shanking the injected paw, for 1 h and recording every 5 min, as previously reported.
The formalin injection induces a rapid pain response (phase I), which lasts about 5 min, due to direct nociceptors’ activation, characterized by an acute form of pain. After a short quiescent period, another behavioral pain form (phase II) occurs, considered more important clinically, characterized by an inflammatory component and persistent pain due to nociceptive sensitization in the dorsal horn of the spinal cord.
Results are expressed as mean ± S.E.M. (n = 8–10 per group). * p < 0.05, ** p < 0.01. Two-way ANOVA was followed by Bonferroni’s multiple comparison test. Statistical analyses were performed using GraphPad Prism version 9.3.1 (GraphPad Software, San Diego, CA, USA).

The test system is the same in assay [7]. Details: method as in PMID 32186844, PMID 19587856. As to conditions: mouse, injected alone; cited from earlier work.
[8] abbreviates: 5 mg/kg i.p. 20 min before formalin, vs vehicle.

SMILES strings stand for the structures. Where a name gives a salt, the structure may show the parent alone. Read-outs that look alike come from different tables or passages of the source.

T3 sequence (P33535 whole entry): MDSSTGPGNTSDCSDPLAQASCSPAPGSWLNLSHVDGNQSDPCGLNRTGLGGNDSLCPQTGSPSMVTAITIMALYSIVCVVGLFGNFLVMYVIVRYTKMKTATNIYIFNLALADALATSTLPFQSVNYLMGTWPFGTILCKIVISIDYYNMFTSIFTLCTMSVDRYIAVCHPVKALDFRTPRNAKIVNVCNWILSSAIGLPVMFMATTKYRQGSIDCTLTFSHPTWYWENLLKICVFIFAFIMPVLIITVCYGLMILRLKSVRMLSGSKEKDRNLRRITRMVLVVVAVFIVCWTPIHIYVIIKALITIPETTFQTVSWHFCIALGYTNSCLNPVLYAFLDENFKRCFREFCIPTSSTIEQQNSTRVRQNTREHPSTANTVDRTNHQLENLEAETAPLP
T4 sequence (P33533 whole entry): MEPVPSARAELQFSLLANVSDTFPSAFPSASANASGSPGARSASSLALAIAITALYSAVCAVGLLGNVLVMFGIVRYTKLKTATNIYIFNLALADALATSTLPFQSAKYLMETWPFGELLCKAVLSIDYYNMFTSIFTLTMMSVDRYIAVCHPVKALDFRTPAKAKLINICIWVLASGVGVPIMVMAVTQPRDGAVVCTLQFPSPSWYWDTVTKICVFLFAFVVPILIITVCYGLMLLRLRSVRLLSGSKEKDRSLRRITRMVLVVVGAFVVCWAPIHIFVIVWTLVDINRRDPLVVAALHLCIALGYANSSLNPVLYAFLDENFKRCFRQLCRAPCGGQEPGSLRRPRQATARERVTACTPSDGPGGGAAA
T1 sequence (Q60492 whole entry): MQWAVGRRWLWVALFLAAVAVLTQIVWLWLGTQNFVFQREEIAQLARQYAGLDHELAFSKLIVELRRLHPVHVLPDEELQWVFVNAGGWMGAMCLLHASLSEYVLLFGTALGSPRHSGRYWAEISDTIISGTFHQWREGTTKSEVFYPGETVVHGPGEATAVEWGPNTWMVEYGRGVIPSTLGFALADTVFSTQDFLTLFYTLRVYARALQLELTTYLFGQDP
T5 sequence (P41144 whole entry): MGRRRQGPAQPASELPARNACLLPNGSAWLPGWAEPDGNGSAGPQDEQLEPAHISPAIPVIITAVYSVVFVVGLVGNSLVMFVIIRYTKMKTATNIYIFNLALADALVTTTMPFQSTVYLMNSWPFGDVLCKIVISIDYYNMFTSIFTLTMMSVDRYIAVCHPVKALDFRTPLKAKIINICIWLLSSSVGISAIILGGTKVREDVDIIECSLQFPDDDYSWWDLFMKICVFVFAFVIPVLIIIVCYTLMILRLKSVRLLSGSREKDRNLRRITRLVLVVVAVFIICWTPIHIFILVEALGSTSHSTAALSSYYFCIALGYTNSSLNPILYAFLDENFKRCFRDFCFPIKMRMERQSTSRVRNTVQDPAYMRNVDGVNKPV

As to `COC(CN1CC[C@]2(C)c3cc(O)ccc3C[C@H]1[C@H]2C)c1ccccc1` (single isomer, unassigned; (+)) [(+)-2R/S-LP2 (7)], the Ki in assay [1] was determined as 26.6 ± 2.35 nM; in assay [2] it was 2390 ± 514 nM; in assay [3], 1140 ± 20 nM; in assay [4], 1040 ± 35 nM; in assay [5], 1390 ± 40 nM. For the same compound, the “severity of the first phase of formalin-induced pain” value in assay [6] (5 mg/kg i.p. 20 min before formalin, phase I) was “did not alter”. The “second phase of formalin-induced pain (number of flinches, lifting/licking time)” value in assay [6] (5 mg/kg i.p. 20 min before formalin, phase II, vs vehicle) is given as “significantly decreased”. Besides, in assay [6] (PRE-084 hydrochloride 32 mg/kg s.c. 20 min before compound 5 mg/kg i.p., second phase), the “antinociceptive effect after PRE-084 pre-treatment” value is listed as “prevented”.

Regarding `COC(CN1CC[C@@]2(C)c3cc(O)ccc3C[C@@H]1[C@@H]2C)c1ccccc1` (single isomer, unassigned; (-)) [(−)-2R/S-LP2 (1)], the results for the Ki in assay [1] and in assay [2] were 171 ± 46.1 nM and 66.5 ± 10.9 nM, respectively.

For the compound `CO[C@@H](CN1CC[C@]2(C)c3cc(O)ccc3C[C@H]1[C@H]2C)c1ccccc1` [(+)-2R-LP2 (8), (2S,6S,11S)-3-((R)-2-methoxy-2-phenylethyl)-6,11-dimethyl-1,2,3,4,5,6-hexahydro-2,6-methanobenzo[d]azocin-8-ol], the Ki in assay [1] was determined as 47.9 ± 7.52 nM; in assay [2] it was 1910 ± 325 nM; in assay [3], 789 ± 30 nM; in assay [4] it was 1010 ± 25 nM; in assay [5] it was 1610 ± 70 nM. Moreover, the “Ki σ2R/σ1R selectivity ratio” value in assay [1] was 40. Further, the “effect on nociceptive behaviour in the formalin test” value in assay [6] (setting [8]) is “not significative”.

For `CO[C@H](CN1CC[C@]2(C)c3cc(O)ccc3C[C@H]1[C@H]2C)c1ccccc1` [(+)-2S-LP2 (9), (2S,6S,11S)-3-((S)-2-methoxy-2-phenylethyl)-6,11-dimethyl-1,2,3,4,5,6-hexahydro-2,6-methanobenzo[d]azocin-8-ol], the Ki amounted to 47 ± 8.82 nM in assay [1]; 2220 ± 417 nM in assay [2]; 1170 ± 30 nM in assay [3]; 1040 ± 40 nM in assay [4]; 1450 ± 29 nM in assay [5]. The “Ki σ2R/σ1R selectivity ratio” value in assay [1] was determined as 47. Besides, the “effect on nociceptive behaviour in the formalin test” value in assay [6] (setting [8]) is given as “did not differ significantly from the vehicle”.

As to `CO[C@@H](CN1CC[C@@]2(C)c3cc(O)ccc3C[C@@H]1[C@@H]2C)c1ccccc1` [(−)-2R-LP2 (2)], the figures for the Ki in assay [1] and in assay [2] were 183 ± 21 nM and 66.7 ± 17.9 nM, respectively. The “analgesic effect, flinching/licking time in both phases of the formalin test” value in assay [6] (2 mg/kg i.p. 20 min before 5% formalin) is recorded as “same profile with a minor potency”.

Turning to `CO[C@H](CN1CC[C@@]2(C)c3cc(O)ccc3C[C@@H]1[C@@H]2C)c1ccccc1` [(−)-2S-LP2 (3)], the Ki in assay [1] came out at 113 ± 13.5 nM; in assay [2], 1010 ± 191 nM. Moreover, the “analgesic effect, flinching/licking time in both phases of the formalin test” value in assay [6] (0.7 mg/kg i.p. 20 min before 5% formalin) is “significant analgesic effect”. For the same compound, the “antinociceptive effect after naloxone pre-treatment” value in assay [6] (naloxone hydrochloride 3 mg/kg s.c. 20 min before compound 0.7 mg/kg i.p.) is on record as “antagonized”.

As for `CN1CCN(CCc2ccc(Cl)c(Cl)c2)CC1` [BD-1063, reference compound], the Ki in assay [1] ([3H]-(+)-pentazocine 2 nM, guinea pig brain cortex membranes, read-out: Ki (nM) ± SD σ1R) turned out to be 14 ± 2.7 nM.

Turning to `O=C(OCCN1CCOCC1)C1(c2ccccc2)CCCCC1` [PRE-084 hydrochloride, 2-morpholinoethyl 1-phenylcyclohexane-1-carboxylate], the “severity of the first and second phases of formalin-induced pain, given alone” value in assay [7] is “did not change”.

The values above are taken from PMC9413390 (Molecules, 2022).
